molecular target: T1, hGPR119 (Homo sapiens, UniProt Q8TDV5); assay: Human Tet-inducible cAMP assay; format: cell-based; settings: Flp-In T-REx 293 tetracycline inducible cells expressing GPR119; cAMP by HITHUNTER kit; 1 hour incubation
T1 construct: expressed in transfected cells; host or cells: Flp-In T-REx 293 (tetracycline-inducible)
T1 sequence (Q8TDV5 1-335): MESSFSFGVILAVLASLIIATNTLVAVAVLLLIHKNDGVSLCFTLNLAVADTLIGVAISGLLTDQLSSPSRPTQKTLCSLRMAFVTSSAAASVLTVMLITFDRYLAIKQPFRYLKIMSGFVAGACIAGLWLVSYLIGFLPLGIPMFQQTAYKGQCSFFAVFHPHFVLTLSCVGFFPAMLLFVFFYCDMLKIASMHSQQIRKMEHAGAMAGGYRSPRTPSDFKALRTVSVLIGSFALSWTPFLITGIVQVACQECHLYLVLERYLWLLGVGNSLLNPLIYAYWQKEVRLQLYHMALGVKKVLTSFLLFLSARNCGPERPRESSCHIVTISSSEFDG
Protocol: The in vitro modulation of recombinant human GPR119 was determined as follows.
Human Tet-Inducible cAMP Assay
Cell lines expressing GPR119 are generated using the Flp-In T-REx 293 tetracycline inducible gene expression system are cultured in culture medium comprising the following components: DMEM#11965, 10% FBS, 2 mM L-glutamine, 200 ug/ml Hygromycin B, and 15 ug/ml blasticidin.
For cAMP assays, cells are plated on 96 well plates (e.g., BD Falcon: REF 353948, black side, clear bottom, TC surface) at a density of about 4.5×10^4 cells per well in growth medium containing 1.0 ug/ml tetracycline (1.0 mg/ml stock). The cells are then incubated for 48 hours at 37° C.
Following the incubation, the growth medium is removed from the wells and the wells rinsed (once) with the assay buffer included in the HITHUNTER® cAMP kit (100 μl/well). Following the wash, 20 μl of assay buffer is added to each well, followed by addition of 10 μl of a 3× concentration compound working solution. The solution is then mixed. The final concentration range of compound is from about 10^−5M to about 10^−11 M. The reagents are then incubated at 37° C. at 5% CO2 for 1 hour.
The manufacturer's protocol may be followed for cAMP determination. The HITHUNTER® cAMP kit protocol is outlined for the HIT-T15 cAMP assays described above.
Compounds of the present invention were tested in the Human Tet-inducible cAMP assay described immediately above and the results shown in Table 1 below were obtained.

First: COC(=O)c1nn(-c2ccc(S(C)(=O)=O)cc2)c(=O)cc1OC1CCN(C(=O)OC(C)(C)C)CC1 [Example 18, Methyl 4-(1-(tert-butoxycarbonyl)piperidin-4-yloxy)-1-(4-(methylsulfonyl)phenyl)-6-oxo-1,6-dihydropyridazine-3-carboxylate]
Second: CC(C)(C)OC(=O)N1CCC(Oc2cc(=O)n(-c3ccc(S(C)(=O)=O)cc3)nc2C#N)CC1 [Example 31, tert-Butyl 4-(3-cyano-1-(4-(methylsulfonyl)phenyl)-6-oxo-1,6-dihydropyridazin-4-yloxy)piperidine-1-carboxylate]
The EC50 of the first is 48-fold higher: 4010 nM for the first, 83 nM for the second.

Going from CCCc1cnc(N2CCC(Oc3cc(=O)n(-c4ccc(C#N)c(F)c4)nc3C#N)CC2)nc1 [Example 38, 1-(4-Cyano-3-fluorophenyl)-6-oxo-4-(1-(5-propylpyrimidin-2-yl)piperidin-4-yloxy)-1,6-dihydropyridazine-3-carbonitrile] to COC(=O)c1nn(-c2ccc(C#N)c(F)c2)c(=O)cc1OC1CCN(c2ncc(Br)cn2)CC1 [Example 42, Methyl 4-(1-(5-bromopyrimidin-2-yl)piperidin-4-yloxy)-1-(4-cyano-3-fluorophenyl)-6-oxo-1,6-dihydropyridazine-3-carboxylate], the EC50 rises from 8 nM to 107 nM (13-fold).

First: CC(=O)c1cnc(N2CCC(Oc3cnn(-c4ccc(S(C)(=O)=O)cc4)c(=O)c3)CC2)nc1 [Example 11, 5-(1-(5-Acetylpyrimidin-2-yl)piperidin-4-yloxy)-2-(4-(methylsulfonyl)phenyl)pyridazin-3(2H)-one]
Second: N#Cc1nn(-c2ccc(Cl)c(Cl)c2)c(=O)cc1OC1CCN(c2ncc(C(F)(F)F)cn2)CC1 [Example 26, 1-(3,4-Dichlorophenyl)-6-oxo-4-(1-(5-(trifluoromethyl)pyrimidin-2-yl)piperidin-4-yloxy)-1,6-dihydropyridazine-3-carbonitrile]
The EC50 of the first is 920-fold higher: 4600 nM for the first, 5 nM for the second.

Going from CC(C)(C)OC(=O)N1CCC(Oc2cc(=O)n(-c3ccc(C#N)c(F)c3)nc2C#N)CC1 [Example 34, tert-Butyl 4-(3-cyano-1-(4-cyano-3-fluorophenyl)-6-oxo-1,6-dihydropyridazin-4-yloxy)piperidine-1-carboxylate] to CC(C)(C)OC(=O)N1CCC(Oc2cc(=O)n(-c3ccc(Br)c(F)c3)nc2C#N)CC1 [Example 45, tert-Butyl 4-(1-(4-bromo-3-fluorophenyl)-3-cyano-6-oxo-1,6-dihydropyridazin-4-yloxy)piperidine-1-carboxylate], the EC50 rises from 3 nM to 95 nM (32-fold).

In the case of CC(C)(C)OC(=O)N1CCC(Oc2cc(=O)n(-c3ccc(Cl)c(Cl)c3)nc2C(N)=O)CC1 [Example 16, tert-Butyl 4-(3-carbamoyl-1-(3,4-dichlorophenyl)-6-oxo-1,6-dihydropyridazin-4-yloxy)piperidine-1-carboxylate], the EC50 is reported as 3390 nM.

From patent US8372837B2, “Pyridone and pyridazone analogues as GPR119 modulators” (Bristol-Myers Squibb Company, priority 2008, dated 2013)
